Test results reported in US11384071B2, “Inhibitors of mechanotransduction to treat pain and modulate touch perception” (Max-Delbrück-Centrum für Molekulare Medizin in der …, priority 2016, dated 2022).

Assays:
STOML3 = biological target: T1, STOML3 (Mus musculus, UniProt Q6PE84); experiment: BiFC assay of STOML3 self-association in HEK-293 cells; assay type: cell-based; details: for STOML3 self-association based on the slope of YFP signal development: primary screen of about 35000 small molecules, each at 10 M (so in the source)
T1 construct: expressed in transfected cells; host or cells: HEK-293
T1 sequence (Q6PE84 1-287): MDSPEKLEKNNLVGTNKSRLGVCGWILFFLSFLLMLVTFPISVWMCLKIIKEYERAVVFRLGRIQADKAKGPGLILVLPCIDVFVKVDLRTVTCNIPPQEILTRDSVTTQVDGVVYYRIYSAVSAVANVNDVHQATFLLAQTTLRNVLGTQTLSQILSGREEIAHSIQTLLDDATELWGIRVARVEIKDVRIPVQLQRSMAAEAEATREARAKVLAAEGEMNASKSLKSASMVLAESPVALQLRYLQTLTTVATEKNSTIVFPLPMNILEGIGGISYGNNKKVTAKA
Description: HEK-293 cells were cultured in T-150 flasks to approximately 70% confluence; cells were co-transfected with plasmids encoding STOML3-VC and STOML3-VN using Fugene-HD, as per manufacturer's instructions. The transfection reaction was allowed to proceed for 8 h before cells were recovered from the dishes, resuspended in DMEM media containing 25 mM HEPES and lacking phenol red. Cells were plated in PLL-coated 384 well plates using an automated dispenser (EL406 Microplate Washer Dispenser). Plates already contained compound from the ChemBioNet compound library1. The final assay volume was 40 μl cells with 10 μM of compound. […] Development of the YFP fluorescence signal was monitored overnight (15 h), with readings taken every 3 h (ex: 515±8 nm, em: 535±8 nm). In between readings cells were maintained at 37° C., 5% CO2, and 95% humidity. The overnight monitoring of signal development was performed on a Freedom Evo workstation equipped with a robotic arm for plate transport and a Safirell plate reader for fluorescence measurement (Tecan Group Ltd, Männedorf, Switzerland), and an integrated STX44-ICSA automated plate incubator (Liconic AG, Mauren, Liechtenstein) for plate storage in between measurements. Experiments were repeated with 20 plates each day until the entire compound library had been screened and data was normalized to in-plate controls.
Compounds of interest were selected from the slope of YFP-signal vs time. Each well was compared to the average slope of in-plate positive controls (normalized percent activity), and compared to the mean and standard deviation of all samples on a plate (without the controls), giving a Z score as a measure of statistical significance. Initially, compounds were re-screened in triplicate to confirm whether or not the noted differences were repeatable; compounds with confirmed activity were selected for further analysis.
In mammals STOML3 belongs to a family of five structurally conserved membrane proteins, including stomatin, STOML1, STOML2, and podocin^10,12-16, all of which self-associate via their stomatin-domain (FIG. 8a)^10. Self-association of stomatin-domain proteins can be monitored in HEK293 cells using Bimolecular Fluorescence Complementation (BiFC) whereby N- and C-terminal halves of the YFP molecule are tagged to the prey and bait protein STOML3^2,17 (FIG. 1a). Irreversible association of the YFP fragments produces fluorescence that increases linearly over time (FIG. 1b).

[1] = test system: Piezo1 currents in N2A cells; experiment: Pillar array patch-clamp analysis of mechanotransduction in N2A cells; assay type: cell-based
Description: Whole-cell, patch-clamp recordings were conducted as previously described 5-7, using patch pipettes with a tip resistance of 3-6 MΩ, filled with a solution of: 110 mM KCl, 10 mM NaCl, 1 mM MgCl2, 1 mM EGTA and 10 mM HEPES, adjusted to pH 7.3 with KOH. (For experiments on DRG neurons 10 mM QX-314 was added to the pipette to block voltage-gated sodium channels 8 Extracellular solutions contained 140 mM NaCl, 4 mM KCl, 2 mM CaCl2, 1 mM MgCl2, 4 mM glucose, 10 mM HEPES, adjusted to pH 7.4 with NaOH. A Zeiss 200 inverted microscope and an EPC-10 amplifier in combination with Patchmaster software was used, data was analyzed using Fitmaster software (HEKA Electronik GmbH, Germany). Pipette and membrane capacitance were compensated using the auto function of Patchmaster, series resistance was compensated by at least 60% to minimize voltage errors. Mechanical stimuli were applied using a polished glass probe driven by the MM3A micromanipulator (Kleindiek Nanotechnik, Germany). Mechanical stimuli were applied by either; indenting the cell soma or by culturing cells on elastomeric pillar arrays and applying the stimulus to the cell-substrate interface by deflecting an individual pilus.
Briefly, elastomeric pillar arrays of defined dimensions were cast in PDMS with an elasticity of 2 MPa. Cells cultured on these arrays were monitored using whole-cell patch-clamp whilst a glass probe was used to apply repeated deflections (of differing magnitudes) to an individual pilus directly beneath the cell. Images were obtained of the pilus before and after deflection and images were analyzed off-line to determine the exact deflection for each data point. Images were obtained using a 40×LD objective and a CoolSNAP EZ CCD camera. Images were analyzed off-line using Igor software (WaveMetrics, USA). The collection of stimulus-response data using pillar arrays generates data sets with variation in both x and y. In order to effectively compare groups for each cell studied we binned response data by stimulus size in the following bins: 0-10, 10-50, 50-100, 100-250, 250-500, 500-1000. For each cell, current amplitudes within each bin were averaged and then bins averaged between cells—we then tested for significance by testing whether the current amplitude for a given stimulation range (i.e. bin) differed between samples. A power analysis was used to determine that moderate to strong effects between samples could be detected with a sample size >4. Data sets were in excess of this number. To distinguish mechanoreceptors from nociceptors in the mixed population of acutely prepared DRG neurons, the shape of the generated action potential (AP) was used. […] For quantitative analysis of mechanosensitivity we measured responses in the most sensitive sub-population of mechanoreceptors, previously defined as Typell mechanoreceptors (Poole et al., 2014). This population was identified as those cells with APs lacking a hump in the falling phase and a full width at half maximum (FWHM) of at least 0.7 ms, (average, ±s.e.m.: 0.9±0.04 ms)
Endogenously expressed STOML3 in N2A cells is required to maintain Piezo channel sensitivity to membrane deflection^2. By precisely deflecting defined areas of the membrane-substrate interface using a pillar array we could activate Piezo1 currents in N2A cells with displacements ranging from 100-1000 nm (FIG. 2a). Both OB-1 and OB-2 reduced the sensitivity of mechanosensitive currents to pillar deflection (FIG. 2b). […]

SMILES | normalized slope of BiFC signal development (STOML3; 2 μm and 20 μm, wild type STOML3 as bait and prey) | BiFC signal (STOML3; lower OB-1 concentration, 2 M (so in the source)) | STOML3 self-association based on the slope of YFP signal development (STOML3) | sensitivity of mechanosensitive currents to pillar deflection [1] | pre-incubation time for maximal reduction of Piezo1 current amplitudes ([1]; 20 μM OB-1) | Hill coefficient ([1]; Piezo1 current) | IC50 ([1]; calculated from concentration dependence, read-out: IC50 on mechanically-activated (Piezo1) currents)
CCOC(=O)c1c(-c2ccccc2)oc2ccc(Oc3c([N+](=O)[O-])ncn3C)cc12 [OB-1, Ethyl 5-((1-methyl-4-nitro-1H-imidazol-5-yl)oxy)-2-phenylbenzofuran-3-carboxylate] | significantly reduced | inhibited | most effective inhibitory compounds | reduced | 3 h | 0.6 | 10 nM
Cc1ccnc(NC(=O)CSc2nnc3c4ccccc4n(Cc4ccccc4)c3n2)c1 [OB-2] | – | – | most effective inhibitory compounds | reduced | – | – | –
